For one experiment, the system named is MKN1. Nature of the experiment: Gastric cancer cell proliferation inhibitory activity (Cell Counting Kit-8), MKN1. Format: cell-based. The conditions noted are these: Homo sapiens, MKN-1; 72 hours, Cell Counting Kit-8, relative IC50. As for the experimental part: (§1) Experiments were performed using six types of gastric cancer cell lines to measure the cell proliferation inhibitory ability of each Example compound. NCI-N87, SNU601, KATO-III, MKN1, and AGS cells were dispensed into a 96-well plate at 100 µL of cell suspension per well using RPMI1640 medium containing 10 % FBS and 1 % PS, followed by incubation in a cell incubator at 37 °C and 5 % CO2. HS746T cells were dispensed into a 96-well plate at 100 µL of cell suspension per well using DMEM medium containing 10 % FBS and 1 % PS, followed by incubation in a cell incubator at 37 °C and 5 % CO2. The next day, each Example compound dissolved and diluted in DMSO across 10 concentration ranges and a DMSO control group were treated on the cells for 72 hours. After completion of the compound treatment, 10 µL of Cell Counting Kit-8 (Dojindo) reagent was added to each well of the 96-well plate, followed by incubation for 2 hours. […] were measured after inserting the 96-well plate into an Envision plate reader […]. Relative IC50 values were calculated by fitting a dose-response curve using Graphpad PRISM software.
(§2) The gastric cancer cell proliferation inhibitory activities of the Example compounds measured by the method described above were evaluated according to the following criteria, and the results are presented in Table 20.
In general terms: Tetrazolium assays rely on reduction of a dye to a coloured formazan, in cell work by metabolically active cells.

For another experiment, the system named is AGS cells. Nature of the experiment: Gastric cancer cell proliferation inhibitory activity (Cell Counting Kit-8), AGS. Format: cell-based. The conditions noted are these: Homo sapiens, 72 hours, Cell Counting Kit-8, relative IC50. As for the experimental part: as §1, §2
The subject of experiment [1] is HCC70 breast cancer cells. Description: Zebrafish xenograft breast cancer model (HCC70). It is filed as in vivo. The conditions noted are these: 48 hours, compared to the vehicle, FIG. 6. The method, then: Transgenic Tg(fli1:EGFP)y1 zebrafish embryos were cultured in E3 embryo medium with 0.2 mM 1-phenyl-2-thiourea (PTU) at 28 °C for 48 hours. HCC70 breast cancer cells were cultured using RPMI-1640 medium supplemented with 10 % FBS, and AGS gastric cancer cells were cultured using F-12K medium supplemented with 10 % FBS. Each cell was collected, labeled with Dil red fluorescent dye, and then subcutaneously transplanted into 2-day-old zebrafish embryos. After selecting embryos with tumors, they were classified into experimental groups (20 embryos per group), and each Example compound dissolved and diluted in DMSO across 2 to 3 concentration ranges, a DMSO control group, or a comparative compound were added, followed by incubation at 35.5 °C for 48 hours or 72 hours. In the breast cancer model, primary tumors were collected immediately after transplantation (Day 0) and after 48 hours (Day 2), and in the gastric cancer model, primary tumors were obtained immediately after transplantation (Day 0) and after 72 hours (Day 3). Images of the collected tumors were analyzed for reduction in tumor size compared to the DMSO control group using image software, and the number of disseminated cancer cells after 3 days was manually counted through the captured images, with the results shown in FIGs. 6, 7, and 8. […]

The test system of the next experiment is NCI-N87. Nature of the experiment: Gastric cancer cell proliferation inhibitory activity (Cell Counting Kit-8), NCI-N87. The conditions noted are these: Homo sapiens, 72 hours, Cell Counting Kit-8, relative IC50. It is filed as cell-based. As for the experimental part: as §1, §2
The next experiment concerns DLD-1. Nature of the experiment: Colorectal cancer cell proliferation inhibitory activity, DLD-1. Format: cell-based. The conditions noted are these: Homo sapiens, 72 hours, Cell Counting Kit-8, relative IC50. The method, then:
as §1, with “seven” for “six”, “colorectal” for “gastric”, “DLD-1, LoVo, SW620, SW480, HCT116, HCT15,” for “NCI-N87, SNU601, KATO-III, MKN1,”, “HT29” for “AGS”, “RPMI1640” for “RPMI1640 medium containing 10 % FBS and 1 % PS, followed by incubation in a cell incubator at 37 °C and 5 % CO2. HS746T cells were dispensed into a 96-well plate at 100 µL of cell suspension per well using DMEM”
(§3) The colorectal cancer cell proliferation inhibitory activities of the Example compounds measured by the method described above were evaluated according to the following criteria, and the results are presented in Table 19.

Another experiment relates to HT29 cells. Nature of the experiment: Colorectal cancer cell proliferation inhibitory activity, HT29. It is filed as cell-based. The conditions noted are these: Homo sapiens, HT-29; 72 hours, Cell Counting Kit-8, relative IC50. The method, then:
as §1, with “seven” for “six”, “colorectal” for “gastric”, “DLD-1, LoVo, SW620, SW480, HCT116, HCT15,” for “NCI-N87, SNU601, KATO-III, MKN1,”, “HT29” for “AGS”, “RPMI1640” for “RPMI1640 medium containing 10 % FBS and 1 % PS, followed by incubation in a cell incubator at 37 °C and 5 % CO2. HS746T cells were dispensed into a 96-well plate at 100 µL of cell suspension per well using DMEM”
as §3

In the next experiment the test system is HS746T cells. Nature of the experiment: Gastric cancer cell proliferation inhibitory activity (Cell Counting Kit-8), HS746T. Format: cell-based. The conditions noted are these: Homo sapiens, 72 hours, Cell Counting Kit-8, relative IC50. The method, then: as §1, §2
The test system of the next experiment is HCT116. Description: Colorectal cancer cell proliferation inhibitory activity, HCT116. Format: cell-based. The conditions noted are these: Homo sapiens, HCT-116; 72 hours, Cell Counting Kit-8, relative IC50. The method, then:
as §1, with “seven” for “six”, “colorectal” for “gastric”, “DLD-1, LoVo, SW620, SW480, HCT116, HCT15,” for “NCI-N87, SNU601, KATO-III, MKN1,”, “HT29” for “AGS”, “RPMI1640” for “RPMI1640 medium containing 10 % FBS and 1 % PS, followed by incubation in a cell incubator at 37 °C and 5 % CO2. HS746T cells were dispensed into a 96-well plate at 100 µL of cell suspension per well using DMEM”
as §3

The test system of a further experiment is LoVo. Nature of the experiment: Colorectal cancer cell proliferation inhibitory activity, LoVo. It is filed as cell-based. The conditions noted are these: Homo sapiens, 72 hours, Cell Counting Kit-8, relative IC50. As for the experimental part: as §1, with “seven” for “six”, “colorectal” for “gastric”, “DLD-1, LoVo, SW620, SW480, HCT116, HCT15,” for “NCI-N87, SNU601, KATO-III, MKN1,”, “HT29” for “AGS”, “RPMI1640” for “RPMI1640 medium containing 10 % FBS and 1 % PS, followed by incubation in a cell incubator at 37 °C and 5 % CO2. HS746T cells were dispensed into a 96-well plate at 100 µL of cell suspension per well using DMEM”
as §3

The test system of a further experiment is AsPC-1. Nature of the experiment: Pancreatic cancer cell proliferation inhibitory activity, AsPC-1. Format: cell-based. The conditions noted are these: Homo sapiens, ASPC1; 72 hours, Cell Counting Kit-8, relative IC50. The method, then: (§4) Experiments were performed using three types of pancreatic cancer cell lines to measure the cell proliferation inhibitory ability of the compounds of the present invention. AsPC-1, MIA-PaCa2-Control, and Gemcitabine resistant-MIA-PaCa2 cells were dispensed into a 96-well plate at 100 uL of cell suspension per well using DMEM medium containing 10 % FBS and 1 % PS, followed by incubation in a cell incubator at 37 °C and 5 % CO2. The next day, the compound of Example 8 dissolved and diluted in DMSO across 10 concentration ranges and a DMSO control group were treated on the cells for 72 hours. After completion of the compound treatment, 10 µL of Cell Counting Kit-8 (Dojindo) reagent was added to each well of the 96-well plate, followed by incubation for 2 hours. […] were measured after inserting the 96-well plate into an Envision plate reader […]. Relative IC50 values were calculated by fitting a dose-response curve using Graphpad PRISM software.
(§5) The pancreatic cancer cell proliferation inhibitory activities of the Example compounds measured by the method described above were evaluated according to the following criteria, and the results are presented in Table 18.

A further experiment deals with MIA-PaCa2-Control. Nature of the experiment: Pancreatic cancer cell proliferation inhibitory activity, MIA-PaCa2-Control. The conditions noted are these: 72 hours, Cell Counting Kit-8, relative IC50. It is filed as cell-based. The method, then: as §4, §5
A further experiment has as its system KATO-III. Description: Gastric cancer cell proliferation inhibitory activity (Cell Counting Kit-8), KATO-III. It is filed as cell-based. The conditions noted are these: Homo sapiens, 72 hours, Cell Counting Kit-8, relative IC50. The method, then: as §1, §2
A further experiment relates to SW620. Description: Colorectal cancer cell proliferation inhibitory activity, SW620. It is filed as cell-based. The conditions noted are these: Homo sapiens, SW-620; 72 hours, Cell Counting Kit-8, relative IC50. The method, then: as §1, with “seven” for “six”, “colorectal” for “gastric”, “DLD-1, LoVo, SW620, SW480, HCT116, HCT15,” for “NCI-N87, SNU601, KATO-III, MKN1,”, “HT29” for “AGS”, “RPMI1640” for “RPMI1640 medium containing 10 % FBS and 1 % PS, followed by incubation in a cell incubator at 37 °C and 5 % CO2. HS746T cells were dispensed into a 96-well plate at 100 µL of cell suspension per well using DMEM”
as §3

The text below walks through data of EP4813991A1 (iLeadBMS Co., Ltd., priority 2023, dated 2025).

pIC50: −log10 of the molar value.

By pIC50 is commonly meant −log10 of the IC50, conventionally taken in molar units. Take `Nc1ncc(-c2cc(NCc3nc4cc(Cl)c(Cl)cc4[nH]3)c3ncc(C(F)(F)F)n3n2)cn1` [Example 40]: the pIC50 in the experiment on MKN1 and with AGS cells was ≥ 6.70 each time.

As for `N#CC1CN(c2cc(NCc3nc4cc(Cl)c(Cl)cc4[nH]3)c3ncc(C(F)(F)F)n3n2)C1` [Example 30, 1-(8-(((5,6-dichloro-1H-benzol[d]imidazol-2-yl)methyl)amino)-3-(trifluoromethyl)imidazo[1,2-b]pyridazin-6-yl)azetidine-3-carbonitrile], the “reduction in tumor size” value in [1] was “dose-dependent reduction in tumor size”.

As for `CN1CCN(c2cc(NCc3nc4ccc(F)c(F)c4[nH]3)c3ncc(C(F)(F)F)n3n2)CC1` [Example 8, N-((6,7-difluoro-1H-benzo[d]imidazol-2-yl)methyl)-6-(4-methylpiperazin-1-yl)-3-(trifluoromethyl)imidazo[1,2-b]pyridazin-8-amine], the pIC50 with NCI-N87, with DLD-1, in the experiment on HT29 cells, with MKN1, with HS746T cells and in the experiment on HCT116 was ≥ 6.70 throughout. The pIC50 in the experiment with LoVo, with AsPC-1, in the experiment with AGS cells, in the experiment with MIA-PaCa2-Control, with KATO-III and in the experiment on SW620 was ≥ 6.70 throughout.
